Reference: US7217697B2, “Glucopyranosyloxypyrazole derivative medicinal composition containing the same medicinal use thereof and intermediate therefor” (Kissei Pharmaceutical Co., Ltd., priority 2001, dated 2007)

Legend:
human SGLT1 = target: T1, human SGLT1 (Homo sapiens, UniProt P13866); experiment: Assay for inhibitory effects on human SGLT1 activity (uptake of methyl-α-D-glucopyranoside); assay type: cell-based; details: CS1-5-11D cells (CHO-K1 stably expressing human SGLT1); uptake of 1 mM 14C-labeled α-MG, 37° C., 1 hour
T1 construct: expressed in transfected cells
T1 sequence (P13866 1-664): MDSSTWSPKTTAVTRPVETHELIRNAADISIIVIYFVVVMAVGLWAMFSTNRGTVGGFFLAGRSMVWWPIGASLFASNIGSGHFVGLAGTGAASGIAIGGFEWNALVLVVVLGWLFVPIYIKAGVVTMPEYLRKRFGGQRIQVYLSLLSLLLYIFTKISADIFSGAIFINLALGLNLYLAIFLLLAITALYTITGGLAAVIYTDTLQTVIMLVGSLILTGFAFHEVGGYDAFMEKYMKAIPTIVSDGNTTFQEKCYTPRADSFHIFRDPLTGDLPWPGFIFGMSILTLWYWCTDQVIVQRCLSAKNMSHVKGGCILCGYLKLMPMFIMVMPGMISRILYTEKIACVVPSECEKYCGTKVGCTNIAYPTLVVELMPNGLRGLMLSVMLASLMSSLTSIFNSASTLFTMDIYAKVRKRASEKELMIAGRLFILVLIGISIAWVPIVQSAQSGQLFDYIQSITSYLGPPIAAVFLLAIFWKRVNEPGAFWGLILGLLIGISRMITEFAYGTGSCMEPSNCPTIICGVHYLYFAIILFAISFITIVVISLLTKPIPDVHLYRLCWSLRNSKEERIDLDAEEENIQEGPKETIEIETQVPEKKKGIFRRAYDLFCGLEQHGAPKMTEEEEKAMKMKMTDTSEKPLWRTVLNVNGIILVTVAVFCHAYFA
Description: Assay for Inhibitory Effects on Human SGLT1 Activity
1) Cloning and Construction of the Vector Expressing Human SGLT1
The cDNA library was prepared for PCR amplification by reverse transcription from total RNA deprived from human small intestine (Ori gene) using oligo-dT as a primer. Using this cDNA library as a template, the DNA fragment coding 1 to 2005 bp of human SGLT1 (ACCESSION: M24847), which was reported by Hediger et al., was amplified by PCR method and inserted into the multi-cloning site of pcDNA3.1(−) (Invitrogen). The DNA sequence inserted was perfectly matched to the previously reported sequence of human SGLT1.
2) Establishment of Cell Line Stably Expressing Human SGLT1
The expression vector of human SGLT1 was digested by Sca I into a linear DNA. The linear DNA was transfected into CHO-K1 cells by means of lipofection (Effectene Transfection Reagent: QIAGEN). Neomycin resistant cell lines were selected by culture in the medium containing G418 (1 mg/mL, LIFE TECHNOLOGIES), and then the activity against the uptake of methyl-α-D-glucopyranoside was measured by the method described below. […] CS1-5–11D cells were cultured in the presence of G418 at 200 μg/mL.
3) Measurement of the Inhibitory Activity Against the Uptake of methyl-α-D-glucopyranoside (α-MG)
CS1-5-11D cells were seeded into a 96-well culture plate at a density of 3×10^4 cells/well and cultured for 2 days, and were used in the uptake assay. A mixture of non-labeled (Sigma) and ^14C-labeled α-MG (Amersham Pharmcia Biotec) added to the uptake buffer (pH 7.4; containing 140 mM sodium chloride, 2 mM potassium chloride, 1 mM calcium chloride, 1 mM magnesium chloride, 10 mM 2-[4-(2-hydroxyethyl)-1-piperazinyl]ethane sulfonic acid, and 5 mM tris(hydroxymethyl)aminomethane) at the final concentration of 1 mM. A test compound was dissolved in dimethyl sulfoxide, and then appropriately diluted with distilled water. The test compound solution was added to the uptake buffer containing 1 mM α-MG, and designated as a measurement buffer. For the control group, the measurement buffer without any test compound was prepared. For measuring the basal uptake, a basal buffer which contains 140 mM chorine chloride instead of 140 mM sodium chloride was prepared. After removing the culture medium of CS1-5-11D cells, 180 μL of the pre-treatment buffer (the uptake buffer not containing α-MG) was added to each well and incubated at 37° C. for 10 minutes. After repeating the same treatment, the pre-treatment buffer was removed. To each well was added 75 μL of the measurement buffer or the basal buffer was added and incubated at 37° C. for 1 hour. After removing the measurement buffer, cells were washed twice with 180 μL per well of the washing buffer (the basal buffer containing 10 mM non-labeled α-MG). The cells were solubilized by 75 μL per well of 0.2 mol/L sodium hydroxide. The cell lysates were transferred into PicoPlates (Packard), and then added 150 μL of MicroScint-40 (Packard) and mixed. Radioactivity was measured by means of micro-scintillation counter TopCount (Packard). One hundred % was set to the difference between the uptake in the control group and the basal uptake, and the uptake of methyl α-D-glucopyranoside at each drug concentration were calculated. The drug concentration, at which 50% uptake of methyl α-D-glucopyranoside was inhibited (IC50 value), was calculated using logit plot.

diabetic rats = experiment: Assay for inhibitory effects on blood glucose level increase in rats (liquid meal tolerance test); assay type: in vivo; details: diabetic rats (nicotinamide/streptozotocin), 10 mg/kg orally, liquid meal 15 kcal/kg, mean±S.E.
Description: Assay for Inhibitory Effects on Blood Glucose Level Increase in Rats
1) Preparation of Diabetic Rat Model
Ten weeks old rats were injected nicotinamide (230 mg/kg) intraperitoneally. Fifteen minutes after injection, they were injected streptozotocin (65 mg/kg) intravenously from tail vain under anesthesia with ether. Two weeks later, rats were fasted for 5 hours and then oral glucose tolerance test (2 g/kg) was done.
2) Liquid Meal Tolerance Test
After 16 hours fasted, the diabetic rats were orally administered a test compound (10 mg/kg), which was suspended with 0.5% sodium carboxymethylcellulose (CMC), in the drug-treating group, or 0.5% sodium carboxymethylcellulose (CMC) alone in a control group. Immediately after the compound administration, 15 kcal/kg of liquid meal (No. 038, Conrol diet, assorted with dextrin and maltose; Oriental Yeast Co., Ltd.) was loaded orally. The blood was collected from tail artery immediately before (0 h), at 0.5 and 1 hour after administration, and treated with heparin immediately. The blood was centrifuged, and the plasma was collected to quantify the plasma glucose concentration. The values in the table are presented as the mean±S.E.

Male C57BL/6J mice = experiment: Acute toxicity test; assay type: in vivo; details: n=5, oral 1 g/kg, observed for 48 hours
Description: Male C57BL/6J mice (CLEA Japan, Inc.; 17 weeks old, 20–23 g, n=5) were fasted for 4 hours.

IC50 (human SGLT1) [µM]	Compound	also measured
0.008	CC(C)c1c(Cc2ccccc2OCc2ccccc2)c(O[C@@H]2O[C@H](CO)[C@@H](O)[C@H](O)[C@H]2O)nn1CCO [Example 9, 4-(2-Benzyloxybenzyl)-3-(β-D-glucopyranosyloxy)-1-(2-hydroxyethyl)-5-isopropyl-1H-pyrazole]	–
0.013	OCCn1nc(O[C@@H]2O[C@H](CO)[C@@H](O)[C@H](O)[C@H]2O)c(Cc2ccccc2OCc2ccccc2)c1C(F)(F)F [Example 11, 4-(2-Benzyloxybenzyl)-3-(β-D-glucopyranosyloxy)-1-(2-hydroxyethyl)-5-trifluoromethyl-1H-pyrazole]	–
0.035	CC(C)c1[nH]nc(O[C@@H]2O[C@H](CO)[C@@H](O)[C@H](O)[C@H]2O)c1Cc1ccccc1OCc1cccc(O)c1 [Example 12, 3-(β-D-Glucopyranosyloxy)-4-[2-(3-hydroxybenzyloxy)benzyl]-5-isopropyl-1H-pyrazole]	–
0.03	OCCCn1nc(O[C@@H]2O[C@H](CO)[C@@H](O)[C@H](O)[C@H]2O)c(Cc2ccccc2OCc2ccccc2)c1C(F)(F)F [Example 13, 4-(2-Benzyloxybenzyl)-3-(β-D-glucopyranosyloxy)-1-(3-hydroxypropyl)-5-trifluoromethyl-1H-pyrazole]	–
0.001	CC(C)c1[nH]nc(O[C@@H]2O[C@H](CO)[C@@H](O)[C@H](O)[C@H]2O)c1Cc1ccccc1OCc1cccc(Cl)c1 [Example 15, 4-[2-(3-Chlorobenzyloxy)benzyl]-3-(β-D-glucopyranosyloxy)-5-isopropyl-1H-pyrazole]	–
0.08	CCc1c(Cc2ccccc2OCc2ccccc2)c(O[C@@H]2O[C@H](CO)[C@@H](O)[C@H](O)[C@H]2O)nn1CCO [Example 19, 4-(2-Benzyloxybenzyl)-5-ethyl-3-(β-D-glucopyranosyloxy)-1-(2-hydroxyethyl)-1H-pyrazole]	–
0.014	OC[C@H]1O[C@@H](Oc2n[nH]c(C(F)(F)F)c2Cc2ccccc2OCc2ccccc2)[C@H](O)[C@@H](O)[C@@H]1O [Example 21, 4-(2-Benzyloxybenzyl)-3-(β-D-glucopyranosyloxy)-5-trifluoromethyl-1H-pyrazole]	–
0.194	CC(C)c1[nH]nc(O[C@@H]2O[C@H](CO)[C@@H](O)[C@H](O)[C@H]2O)c1Cc1ccccc1OC1CCCCCC1 [Example 51, 4-(2-Cycloheptyloxybenzyl)-3-(β-D-glucopyranosyloxy)-5-isopropyl-1H-pyrazole]	–

Compound	IC50 (human SGLT1) [µM]	also measured
CC(C)c1[nH]nc(O[C@@H]2O[C@H](CO)[C@@H](O)[C@H](O)[C@H]2O)c1Cc1ccccc1OCc1ccccc1 [Example 2, 4-(2-Benzyloxybenzyl)-3-(β-D-glucopyranosyloxy)-5-isopropyl-1H-pyrazole]	0.018	Plasma glucose concentration (diabetic rats; 0 h (pretreatment)): 126 ± 7 mg/dL; Plasma glucose concentration (diabetic rats; 0.5 h after administration): 194 ± 7 mg/dL; Plasma glucose concentration (diabetic rats; 1 h after administration): 219 ± 16 mg/dL; Number of death (Male C57BL/6J mice): 0/5
